This data set can be described thus: in vitro. To be noted: human, hela cells, % viability.

One may read the viability as a read-out of living cells in per cent, often relative to untreated cells. As for `CCOC(=O)Cn1ncc2c3sc(C)cc3n(C)c2c1=O` [CBK282388], the viability at 28.5 h, 10 µM is 96.2%.

As to `CN1CCC(N(C)C(=O)NCc2ccc(Cl)c(Cl)c2)C1` (centres unmarked) [CBK155996], the viability at 28.5 h, 10 µM is 92.4%.

As to `Cc1nnc(-c2cc(CCC(C)C)n(-c3cccc(C(=O)N4CCCCC4)c3)n2)o1` [CBK114689], the viability at 28.5 h, 10 µM was 95.4%.

As to `Cc1nn(-c2ccccc2)c(Cl)c1CN1C(=O)NC2(CCCCC2)C1=O` [CBK306043], the viability at 28.5 h, 10 µM stood at 83.8%.

Consider `O=C(CN1C(=O)N2CCCN=C2c2ccccc21)NC1CCCCC1` [CBK284396], for which the viability at 28.5 h, 10 µM was found to be 88.8%.

Turning to `O=C(C1CC2C=CC1C21CC1)N1CCC(Oc2cccc(F)c2)CC1` (centres unmarked) [CBK281525], the viability at 28.5 h, 10 µM worked out at 85.4%.

As to `CC(=O)Nc1cccc(-c2nccnc2NCc2ccc3c(c2)OCO3)c1` [CBK037972], the viability at 28.5 h, 10 µM is 97.1%.

`Cc1[nH]nc(-c2ccc(O)c(C)c2O)c1Oc1ccc(F)cc1` [CBK264478]: the viability at 28.5 h, 10 µM was found to be 124%.

Turning to `c1ccc2c(-c3cn4ccnc4c(Nc4ccc5cn[nH]c5c4)n3)cccc2c1` [CBK066346], the viability at 28.5 h, 10 µM turned out to be 88%.

Take `Cn1cnc2c(ncn2C2OC(CO)C(O)C2O)c1=N` (centres unmarked) [CBK201313]: the viability at 28.5 h, 10 µM is 102%.

`Cc1cccc(NC(=O)c2ccccc2NS(=O)(=O)c2ccc(F)c(F)c2)c1` [CBK113810]: the viability at 28.5 h, 10 µM was determined as 115%.

For the compound `CC(C)N1CCC(N(C)Cc2nc3ccccc3[nH]2)CC1` [CBK283021], the viability at 28.5 h, 10 µM worked out at 105%.

With `COCCC(=O)N1CCC(F)CC1` [CBK200399], the viability at 28.5 h, 10 µM was determined as 99.1%.

As for `Cc1cccc(OCC(=O)NC(=S)Nc2cccc(C(=O)O)c2C)c1` [CBK265067], the viability at 28.5 h, 10 µM came out at 96.3%.

Take `CCOC(=O)N1CCN(S(=O)(=O)c2ccc3c(c2)oc(=O)n3CC)CC1` [CBK305055]: the viability at 28.5 h, 10 µM is 99%.

Consider `CN(C)CC1(O)C2CN3CCN(C2)CC1(c1ccccc1)C3` (centres unmarked) [CBK263029], for which the viability at 28.5 h, 10 µM was found to be 97.5%.

Take `FC(F)(F)c1cccc(-c2nccnc2NCCCN2CCOCC2)c1` [CBK037288]: the viability at 28.5 h, 10 µM came to 97.6%.

On to `CS(=O)(=O)NC1CCCCC1` [CBK012234], for which the viability at 28.5 h, 10 µM amounted to 89.3%.

On to `CC(C)C(=O)N1CCCC(n2c(=O)oc3ccc(Cl)cc32)C1` (centres unmarked) [CBK282890], for which the viability at 28.5 h, 10 µM amounted to 95.3%.

Consider `COCCCn1c(CCC(=O)O)ccc1-c1ccc(Br)cc1` [CBK268015], for which the viability at 28.5 h, 10 µM came to 97.6%.

As for `O=C(Nc1ccc2c(c1)nc1n2CCN(Cc2ccccc2)C1)NC1CCCCC1` [CBK267033], the viability at 28.5 h, 10 µM turned out to be 109%.

On to `CN(CC(=O)O)C(=O)c1ccc(Oc2cccc(Br)c2)nc1` [CBK306485], for which the viability at 28.5 h, 10 µM is 90.7%.

Consider `NCCCNc1ccc(-c2ccco2)cn1` [CBK036911], for which the viability at 28.5 h, 10 µM was 100%.

Consider `COc1ccc(OC)c([C@@H]2CN(Cc3ccccc3)C[C@H]2NC(=O)c2ccco2)c1` [CBK286479], for which the viability at 28.5 h, 10 µM was determined as 96.3%.

Consider `Cn1nc(C(C)(C)C)cc1C(=O)N1CCC(N2C(=O)OCC2(C)C)CC1` [CBK044234], for which the viability at 28.5 h, 10 µM turned out to be 81.5%.

On to `O=C(O)CCN1C(=O)c2ccc(Oc3ccc(NC(=O)c4ccc(Cl)c(Cl)c4)cc3)cc2C1=O` [CBK267400], for which the viability at 28.5 h, 10 µM came to 90.6%.

For the compound `FC(F)(F)c1ccnc(SCCc2cnccn2)n1` [CBK105300], the viability at 28.5 h, 10 µM amounted to 88.6%.

`CCc1nnc2sc(-c3ccc(C)c(NC(=O)c4ccc(N5CCCCC5)c([N+](=O)[O-])c4)c3)nn12` [CBK268476]: the viability at 28.5 h, 10 µM turned out to be 91.5%.

Turning to `CCOc1cc(Br)ccc1S(=O)(=O)NCc1ccc2c(c1)OCO2` [CBK268813], the viability at 28.5 h, 10 µM was determined as 108%.

For `COc1ccc(C(=O)Nc2cc(C)c3c(=O)oc4ccccc4c3n2)c(OC)c1` [CBK291231], the viability at 28.5 h, 10 µM was determined as 94.5%.

For the compound `COc1ccc(CC(=O)Nc2nc(OC)cnc2-c2ccoc2)cc1` [CBK145435], the viability at 28.5 h, 10 µM was 92.8%.

In the case of `CCOc1ccccc1NC(=O)NC(=O)C1CCN(C(C)c2ccc(Cl)cc2)CC1` (centres unmarked) [CBK034899], the viability at 28.5 h, 10 µM came to 98.4%.

These data come from publication PMC12040169 (PLOS Biology, 2025).
